Earlier results as cited in patent publication US20200121616A1, “COMPOSITIONS COMPRISING CANNABIDIOL AND HYALURONIC ACID FOR TREATING INFLAMMATORY JOINT DISEASES” (BOL PHARMA LTD., priority 2015, published 2020).

## Hyaluronic acid
  pKa: about 2.8
